# Measured values reported in patent US8658591B2, “Multi-LEU peptides and analogues thereof as selective PACE4 inhibitors and effective antiproliferative agents” (priority 2008, dated 2014).
# *: point of attachment. Cholyl = C[C@H](CCC(=O)*)[C@H]1CC[C@H]2[C@@H]3[C@H](O)C[C@@H]4C[C@H](O)CC[C@]4(C)[C@H]3C[C@H](O)[C@]12C
# Assays:
# [1] = test system: prostatic cell line DU145; test: MTT cell proliferation index, DU145; format: cell-based, human; conditions: for Cell proliferation index: control = 100%, MTT after 48 hours
# Protocol: The effects of the PACE4 inhibitors on cell proliferation were evaluated. MTT assay was used to evaluate the effects of PACE4 inhibitors on cell proliferation. MTT (3-(4,5-Dimethylthiazol-2-yl)-2,5-diphenyltetrazolium bromide) assay is a standard colorimetric assay for measuring cellular proliferation. Yellow MTT is reduced to purple formazan in the mitochondria of living cells. This reduction takes place only when mitochondrial reductase enzymes are active. Conversion is directly related to the number of viable cells. The MTT assay is quantitative and more sensitive than viability using trypan blue and can also be adapted to 96 well formats, whereas trypan blue tests must be read individually. Because the MTT assay requires less cell manipulation than [^3H]thymidine incorporation assays (no cell harvesting or medium changes are necessary), the possibility of error is reduced and the standard deviation values are lower. […] Other assays also known can be used to determine the effects of an inhibitor on the proliferation of a cell.
# The index of cellular proliferation of cells treated with the ML and acetyl-ML (CH3CO—NH-[…]-CONH2 (SEQ ID NO: 5), see Table 2) peptides were measured using the colorimetric MTT assay (thiazolyl blue tetrazolium bromide; Sigma-Aldrich). Briefly, cells were seeded in 96-well plate (BD Biosciences) in triplicate with 100 μl of a 3.5×10^4 cells/ml cell suspension in complete growth medium. The following day, cells were carefully washed twice with PBS and media were replaced with 100 μl of either RPMI or conditioned growth media. Conditioned growth medium preparation consists in 1.2×10^5 cells seeded in 6-well plates with complete growth media. The next day, cells are washed twice with PBS and the media are replaced with 1 ml RPMI growth medium. 48 hours later, the conditioned media are collected, filtered through […] syringe filter units and incubated on different cell lines.
# 48 hours later, 20 μl of a MTT solution (5 mg/ml in PBS 1×) was added to each well for 4.5 h at 37° C./5% CO2. The media was then discarded and the cells were solubilized with 100 μl isopropanol/0.04 N HCl solution. The absorbance was measured at a wavelength of 550 nm with a reference at 650 nm in microplate reader (SpectraMax190™; Molecular Devices).
# [2] = test system: DU145 cells implanted subcutaneously; test: DU145 xenograft tumor growth in nude mice; format: in vivo, Nu/Nu mice; conditions: intra-tumoral 30 mg/kg once every 2 days, start at 50 mm^3 twenty days after implantation; vehicle control 160 mm^3
# Description: To test the effects of PACE4 inhibitors in vivo, a nude mouse model was used in order to validate PACE4's role in tumor progression within an integrated system. […] The genetic basis of the nude mouse mutation is a disruption of the Foxn1 gene. The nude mouse can receive many different types of tissue and tumor grafts, as it mounts no rejection response. These xenografts are commonly used to test new methods of treating tumors. Nude mice were used to test the tumor progression of control DU145 cells compared to PACE4 silenced DU145 cells (clone 4-2) (FIG. 11). Control tumor received vehicle (DMSO) injections. Control tumor continued their growth pattern, reaching an average size of 160 mm^3, while treated tumors only reached a size of 75 mm^3 (FIG. 11A). Consequently, PACE4 inhibition by the specific inhibitors described herein reduces tumors growth. The nude mouse model is well known and extensively tested (Naomoto et al., 1987, J. Cancer Res. Clin. Oncol., 113: 544-549; Taetle et al., 1987 Cancer Treat. Rep. 71: 297-304).
# DU145 cells were implanted subcutaneously (sc) at two sites on the backs of Nu/Nu mice, which lack an immune system. […] The genetic basis of the nude mouse mutation is a disruption of the Foxn1 gene. The nude mouse can receive many different types of tissue and tumor grafts, as it mounts no rejection response. […]
substance,measurement,setting,value
Cholyl-NH-LLLLRVKR-NH2 (Cholyl-LLLLRVKR-NH2) [cholyl ML],"effect on cell proliferation index, in words",[1]; DU145,more potent effects than ML or acetyl-ML peptides
same,Cell proliferation index,"[1]; DU145, 1 μM peptide",86.65%
same,Cell proliferation index,"[1]; DU145, 10 μM peptide",38.70%
same,Cell proliferation index,"[1]; DU145, 100 μM peptide",4.36%
same,average tumor size reached,[2],75 mm^3
